Assay results taken from patent US20060069132A1, “Azolecarboxamide herbicides” (priority 2004, published 2006).

How the values were obtained:
[1] = system: corn (maize) cv. Pioneer 33G26; assay: Test G safening on corn by naphthalic anhydride seed treatment, preemergence; format: in vivo, Zea mays
Description: This test evaluated the safening of compounds of the invention on corn (maize; Zea mays L.) cv. ‘Pioneer 33G26’ by seed treatment with naphthalic anhydride (1,8-naphthalic anhydride). All corn seed had been first treated with fludioxonil and metaxyl applied at the manufacturer's recommended rate as per the Pioneer 33G26 label. Some of the corn seed were subsequently also treated with naphthalic anhydride as a 1% by weight seed dressing. The corn seed were planted in pots containing pasteurized Sassafras sandy loam soil, and then treatments were applied preemergence the same day. Treatments were applied by spraying the test compounds formulated in a non-phytotoxic solvent mixture, using a flat fan nozzle and a spray volume of 280 L/ha. The treatments were triply replicated and the results subsequently averaged. The pots were placed on a greenhouse bench using a complete randomized block design except for the first replicate, which was unrandomized. The plants were grown in the greenhouse and watered as needed with a dilute nutrient solution containing 200 ppm of N. Illumination was daylight supplemented by artificial sources to maintaining a photoperiod of 16 hours. The temperature was maintained at 28±2° C. during the day and 23±2° C. at night. The plant response was visually rated 25 days after treatment in comparison to untreated controls using a scale of 0 to 100, with 0 representing no effect and 100 representing complete plant death.

blackgrass = assay: Test F pre-/postemergence herbicide test; format: in vivo, Alopecurus myosuroides
Description: (§1) Seeds of plant species selected from annual blugrass (Poa annua L.), blackgrass (Alopecurus myosuroides Huds.), catchweed bedstraw (Gallium aparine L.), common chickweed (Stellaria media (L.) Vill./Cyr.), downy bromegrass (Bromus tectorum L.), green foxtail (Setaria viridis (L.) Beauv.), Italian ryegrass (Lolium multiflorum Lam.), kochia (Kochia scoparia (L.). Schrad.), lambsquarters (Chenopodium album L.), littleseed canarygrass (Phalaris minor Retz.), pigweed (Amaranthus retroflexus L.), Russian thistle (Salsola kali L. ssp. Ruthenica (Iljin) Soo), wild buckwheat (Polygonum convolvulus L.), wild mustard (Sinapis arvensis L.), wild oat (Avena fatua L.), windgrass (Apera spica-venti (L.) Beauv.), winter barley (Hordeum vulgare L.), and wheat (Triticum aestivum L.) were planted and treated preemergence with test chemicals formulated in a non-phytotoxic solvent mixture which included a surfactant.
(§2) At the same time, plants selected from these crop and weed species were treated with postemergence applications of some of the test chemicals formulated in the same manner. Plants ranged in height from 2 to 18 cm (1- to 4-leaf stage) for postemergence treatments. Treated plants and controls were maintained in a greenhouse for 12 to 14 days, after which time all species were compared to controls and visually evaluated. Plant response ratings, summarized in Table F, are based on a scale of 0 to 100 where 0 is no effect and 100 is complete control. A dash (-) response means no test result.

Russian thistle = assay: Test F pre-/postemergence herbicide test; format: in vivo, Salsola kali
Description: as §1, §2

wheat = assay: Test F pre-/postemergence herbicide test; format: in vivo, Triticum aestivum
Description: as §1, §2

CCn1nc(C(C)(C)C)cc1C(=O)Nc1cc(C(=O)N(C)C)ccc1F [Compound 6, N-[5-[(dimethylamino)carbonyl]-2-fluorophenyl]-3-(1,1-dimethylethyl)-1-ethyl-1H-pyrazole-5-carboxamide]
Response of corn, With 1% naphthalic anhydride seed treatment ([1]; 62 g a.i./ha): 60 | Response of corn, Without naphthalic anhydride seed treatment ([1]; 62 g a.i./ha): 65 | Response of corn, With 1% naphthalic anhydride seed treatment ([1]; 125 g a.i./ha): 62 | Response of corn, Without naphthalic anhydride seed treatment ([1]; 125 g a.i./ha): 68 | Response of corn, With 1% naphthalic anhydride seed treatment ([1]; 250 g a.i./ha): 78 | Response of corn, Without naphthalic anhydride seed treatment ([1]; 250 g a.i./ha): 88 | Response of corn, With 1% naphthalic anhydride seed treatment ([1]; 500 g a.i./ha): 70 | Response of corn, Without naphthalic anhydride seed treatment ([1]; 500 g a.i./ha): 92

CCn1nc(C(C)(C)C)cc1C(=O)Nc1cc(C(=O)OC(C)C)c(F)cc1F [Compound 248]
Plant response rating (0-100), Blackgrass (blackgrass; Postemergence, 31 g ai/ha): 45 | Plant response rating (0-100), Blackgrass (blackgrass; Postemergence, 62 g ai/ha): 50 | Plant response rating (0-100), Blackgrass (blackgrass; Postemergence, 125 g ai/ha): 60 | Plant response rating (0-100), Blackgrass (blackgrass; Postemergence, 250 g ai/ha): 60 | Plant response rating (0-100), Blackgrass (blackgrass; Preemergence, 31 g ai/ha): 50 | Plant response rating (0-100), Blackgrass (blackgrass; Preemergence, 62 g ai/ha): 50 | Plant response rating (0-100), Blackgrass (blackgrass; Preemergence, 125 g ai/ha): 65 | Plant response rating (0-100), Blackgrass (blackgrass; Preemergence, 250 g ai/ha): 65 | Plant response rating (0-100), Thistle (Russian thistle; Postemergence, 31 g ai/ha): 25 | Plant response rating (0-100), Thistle (Russian thistle; Postemergence, 62 g ai/ha): 30 | Plant response rating (0-100), Thistle (Russian thistle; Postemergence, 125 g ai/ha): 30 | Plant response rating (0-100), Thistle (Russian thistle; Postemergence, 250 g ai/ha): 40 | Plant response rating (0-100), Thistle (Russian thistle; Preemergence, 31 g ai/ha): 30 | Plant response rating (0-100), Thistle (Russian thistle; Preemergence, 62 g ai/ha): 30 | Plant response rating (0-100), Thistle (Russian thistle; Preemergence, 125 g ai/ha): 30 | Plant response rating (0-100), Thistle (Russian thistle; Preemergence, 250 g ai/ha): 45 | Plant response rating (0-100), Wheat (wheat; Postemergence, 31 g ai/ha): 0 | Plant response rating (0-100), Wheat (wheat; Postemergence, 62 g ai/ha): 5 | Plant response rating (0-100), Wheat (wheat; Postemergence, 125 g ai/ha): 5 | Plant response rating (0-100), Wheat (wheat; Postemergence, 250 g ai/ha): 20 | Plant response rating (0-100), Wheat (wheat; Preemergence, 31 g ai/ha): 0 | Plant response rating (0-100), Wheat (wheat; Preemergence, 62 g ai/ha): 0 | Plant response rating (0-100), Wheat (wheat; Preemergence, 125 g ai/ha): 0 | Plant response rating (0-100), Wheat (wheat; Preemergence, 250 g ai/ha): 10
